Source: US20170210751A1, “PRMT5 INHIBITORS AND USES THEREOF” (Epizyme, Inc., priority 2014, published 2017)

The molecules below were run against T1, PRMT5/MEP50 (Homo sapiens, UniProt O14744) (assay: PRMT5 Biochemical Assay (PRMT5/MEP50 enzyme assay on peptide substrate, 3H-SAM Flashplate)). Conditions: PRMT5/MEP50 4 nM, 3H-SAM 75 nM, peptide 40 nM, 30 min preincubation at 25 degrees Celsius.
T1 construct: Flag-PRMT5; made in house; host or cells: Spodoptera frugiperda (SF9) insect cells, baculovirus (pDEST8)
From the text: S-adenosylmethionine (SAM), S-adenosylhomocysteine (SAH), bicine, KCl, Tween20, dimethylsulfoxide (DMSO), bovine skin gelatin (BSG), and Tris(2-carboxyethyl)phosphine hydrochloride solution (TCEP) were purchased from Sigma-Aldrich at the highest level of purity possible. ^3H-SAM was purchase from American Radiolabeled Chemicals with a specific activity of 80 Ci/mmol. 384-well streptavidin Flashplates were purchased from PerkinElmer.
Peptide representative of human histone H4 residues 1-15 was synthesized with a C-terminal linker-affinity tag motif and a C-terminal amide cap by 21st Century Biochemicals. The peptide was high high-performance liquid chromatography (HPLC) purified to greater than 95% purity and confirmed by liquid chromatography mass spectrometry (LC-MS). The sequence was Ac-[…][K-Biot]-amide (SEQ ID NO.:3).
Full-length human PRMT5 (NM_006109.3) transcript variant 1 clone was amplified from a fetal brain cDNA library, incorporating flanking 5′ sequence encoding a FLAG tag ([…]) (SEQ ID NO.:4) fused directly to Ala 2 of PRMT5. Full-length human MEP50 (NM_024102) clone was amplified from a human testis cDNA library incorporating a 5′ sequence encoding a 6-histidine tag (MHHHHHH) (SEQ ID NO.:5) fused directly to Arg 2 of MEP50. The amplified genes were sublconed into pENTR/D/TEV (Life Technologies) and subsequently transferred by Gateway™ attL×attR recombination to pDEST8 baculvirus expression vector (Life Technologies).
Recombinant baculovirus and Baculovirus-Infected Insect Cells (BIIC) were generated according to Bac-to-Bac kit instructions (Life Technologies) and Wasilko, 2006, respectively. Protein over-expression was accomplished by infecting exponentially growing Spodoptera frugiperda (SF9) cell culture at 1.2×10^6 cell/ml with a 5000 fold dilution of BIIC stock. Infections were carried out at 27° C. for 72 hours, harvested by centrifugation, and stored at −80° C. for purification.
Flag-PRMT5/6His-MeP50 was eluted with 300 mM Imidazole in the same buffer. The purity of recovered protein was 87%. Reference: Wasilko, D. J. and S. E. Lee: “TIPS: titerless infected-cells preservation and scale-up” Bioprocess J., 5 (2006), pp. 29-32.
General Procedure for PRMT5/MEP50 Enzyme Assays on Peptide Substrates.
The assays were all performed in a buffer consisting of 20 mM Bicine (pH=7.6), 1 mM TCEP, 0.005% BSG, and 0.002% Tween20, prepared on the day of use. Compounds in 100% DMSO (1 ul) were spotted into a polypropylene 384-well V-bottom plates (Greiner) using a Platemate Plus outfitted with a 384-channel head (Thermo Scientific). DMSO (1 ul) was added to Columns 11, 12, 23, 24, rows A-H for the maximum signal control and 1 ul of SAH, a known product and inhibitor of PRMT5/MEP50, was added to columns 11, 12, 23, 24, rows I-P for the minimum signal control. A cocktail (40 ul) containing the PRMT5/MEP50 enzyme and the peptide was added by Multidrop Combi (Thermo-Fisher). The compounds were allowed to incubate with PRMT5/MEP50 for 30 min at 25 degrees Celsius, then a cocktail (10 ul) containing ^3H-SAM was added to initiate the reaction (final volume=51 ul). The final concentrations of the components were as follows: PRMT5/MEP50 was 4 nM, ^3H-SAM was 75 nM, peptide was 40 nM, SAH in the minimum signal control wells was 100 uM, and the DMSO concentration was 1%. The assays were stopped by the addition of non-radioactive SAM (10 ul) to a final concentration of 600 uM, which dilutes the ^3H-SAM to a level where its incorporation into the peptide substrate is no longer detectable. 50 ul of the reaction in the 384-well polypropylene plate was then transferred to a 384-well Flashplate and the biotinylated peptides were allowed to bind to the streptavidin surface for at least 1 hour before being washed three times with 0.1% Tween20 in a Biotek ELx405 plate washer. […]

T1 sequence (O14744 with tags, fused parts or gaps): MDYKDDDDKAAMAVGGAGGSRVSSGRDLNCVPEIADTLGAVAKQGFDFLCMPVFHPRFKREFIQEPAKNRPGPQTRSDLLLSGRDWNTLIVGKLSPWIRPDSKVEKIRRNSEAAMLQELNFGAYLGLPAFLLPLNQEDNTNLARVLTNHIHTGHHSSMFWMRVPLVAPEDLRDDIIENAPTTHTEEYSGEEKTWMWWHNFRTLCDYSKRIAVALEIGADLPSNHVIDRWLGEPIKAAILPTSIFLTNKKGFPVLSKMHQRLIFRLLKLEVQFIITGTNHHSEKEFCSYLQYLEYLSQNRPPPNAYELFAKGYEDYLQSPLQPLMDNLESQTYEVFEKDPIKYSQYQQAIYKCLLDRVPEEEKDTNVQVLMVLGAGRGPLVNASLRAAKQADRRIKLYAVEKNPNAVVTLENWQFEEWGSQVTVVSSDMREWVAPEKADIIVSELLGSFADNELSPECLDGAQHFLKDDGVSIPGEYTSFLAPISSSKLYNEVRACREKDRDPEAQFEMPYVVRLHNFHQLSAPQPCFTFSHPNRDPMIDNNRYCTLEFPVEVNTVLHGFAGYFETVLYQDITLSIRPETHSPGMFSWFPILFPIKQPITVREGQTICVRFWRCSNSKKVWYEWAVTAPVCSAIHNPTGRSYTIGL
T1 sequence (Q9BQA1 with tags, fused parts or gaps partner limits assumed): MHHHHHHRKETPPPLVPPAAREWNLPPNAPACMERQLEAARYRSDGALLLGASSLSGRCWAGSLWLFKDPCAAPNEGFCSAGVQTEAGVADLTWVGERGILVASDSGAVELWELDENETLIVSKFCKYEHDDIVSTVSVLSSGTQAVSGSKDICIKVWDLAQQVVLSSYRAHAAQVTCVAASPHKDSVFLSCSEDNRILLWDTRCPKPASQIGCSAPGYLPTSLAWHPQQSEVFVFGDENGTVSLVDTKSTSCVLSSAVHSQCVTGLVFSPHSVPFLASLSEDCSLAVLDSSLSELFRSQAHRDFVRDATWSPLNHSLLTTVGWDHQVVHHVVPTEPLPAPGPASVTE

| IC50 | Structure (SMILES) |
| --- | --- |
| > 10 µM | Cc1nc2c(s1)CCN(C[C@@H](O)CNC(=O)c1cc(NC3COC3)ncn1)C2 [Compound 1-22] |
| 0.101 to 1 µM | CC(=O)N1CCC(Nc2cc(C(=O)NC[C@H](O)CN3CCc4cn(C)nc4C3)ccn2)CC1 [Compound 3-55] |
| 10 to 50 µM | Cn1cnc2ccc(-c3cccc(OCC(O)CN4CCc5ncccc5C4)c3)cc21 (stereo not shown) [Compound 2-4, 1-(7,8-dihydro-1,6-naphthyridin-6(5H)-yl)-3-(3-(1-methyl-1H-benzo[d]imidazol-6-yl)phenoxy)propan-2-ol] |
| > 50 µM | OC(COc1cccc(CNC2CCCC2)c1)CN1CCc2ncccc2C1 (stereo not shown) [Compound 2-1, 1-(3-((cyclopentylamino)methyl)phenoxy)-3-(7,8-dihydro-1,6-naphthyridin-6(5H)-yl)propan-2-ol] |
| > 50 µM | Cn1cnc2c1CN(C[C@H](O)COc1cccc(CNC3CCCC3)c1)CC2 [Compound 3-16] |
| < 0.1 µM | Cc1sc2c(c1C)CN(C[C@@H](O)CNC(=O)c1cc(NC3COC3)ncn1)CC2 [Compound 1-24] |
| 10 to 50 µM | Cn1cnc2ccc(-c3cccc(OCC(O)CN4CCc5[nH]nc(-c6ccccc6)c5C4)c3)cc21 (stereo not shown) [Compound 3-6, 1-(3-(1-methyl-1H-benzo[d]imidazol-6-yl)phenoxy)-3-(3-phenyl-6,7-dihydro-1H-pyrazolo[4,3-c]pyridin-5(4H)-yl)propan-2-ol] |
| 1 to 10 µM | CC(=O)N1CCC(Nc2cc(C(=O)NC[C@H](O)CN3CCc4nc(C)sc4C3)ccn2)CC1 [Compound 1-9] |
| > 50 µM | OC(COc1cccc(CNC2CCCC2)c1)CN1CCc2[nH]cnc2C1 (stereo not shown) [Compound 3-7] |
| > 50 µM | Cn1ncc2c1CCN(C[C@H](O)COc1cccc(-c3ccc4ncn(C)c4c3)c1)C2 [Compound 3-5] |
| > 10 µM | CC(=O)N1CC(Nc2cc(C(=O)NC[C@H](O)CN3CCc4scnc4C3)ncn2)C1 [Compound 1-25] |
| < 0.1 µM | CC(=O)N1CCC(Nc2cc(C(=O)NC[C@H](O)CN3CCc4c(C)csc4C3)ncn2)CC1 [Compound 1-10, (S)-6-((1-acetylpiperidin-4-yl)amino)-N-(2-hydroxy-3-(3-methyl-4,5-dihydrothieno[2,3-c]pyridin-6(7H)-yl)propyl)pyrimidine-4-carboxamide] |
| > 50 µM | Cn1cnc2c1CCN(C[C@@H](O)COc1cccc(CNC3CCCC3)c1)C2 [Compound 3-3] |
| < 0.1 µM | CC(=O)N1CC(Nc2cc(C(=O)NC[C@H](O)CN3CCc4sc(C)c(C)c4C3)ncn2)C1 [Compound 1-31] |
| 1 to 10 µM | CC(=O)N1CC(Nc2cc(C(=O)NC[C@H](O)CN3CCc4cnn(C)c4C3)ncn2)C1 [Compound 3-49] |
| > 50 µM | Cn1cnc2c1CCN(C[C@H](O)COc1cccc(CNC3CCCC3)c1)C2 [Compound 3-13] |
| > 10 µM | Cn1cc2c(n1)CN(C[C@@H](O)CNC(=O)c1cc(NC3COC3)ncn1)CC2 [Compound 3-42] |
| 0.101 to 1 µM | CC(=O)N1CCC(Nc2cc(C(=O)NC[C@H](O)CN3CCc4cnn(C)c4C3)ncn2)CC1 [Compound 3-60] |

| IC50 | Structure (SMILES) |
| --- | --- |
| > 50 µM | Cn1ncc2c1CCN(CC(O)COc1cccc(CNC3CCCC3)c1)C2 (stereo not shown) [Compound 3-8] |
| > 50 µM | OC(COc1cccc(CNC2CCCC2)c1)CN1CCc2ccncc2C1 (stereo not shown) [Compound 2-2, 1-(3-((cyclopentylamino)methyl)phenoxy)-3-(3,4-dihydro-2,7-naphthyridin-2(1H)-yl)propan-2-ol] |
| > 50 µM | Cn1cc2c(n1)CCN(C[C@H](O)COc1cccc(-c3ccc4ncn(C)c4c3)c1)C2 [Compound 3-18] |
| 0.101 to 1 µM | CC(=O)N1CC(Nc2cc(C(=O)NC[C@H](O)CN3CCc4c(C)csc4C3)ncn2)C1 [Compound 1-26] |
| 0.101 to 1 µM | CC(=O)N1CCC(Nc2cc(C(=O)NC[C@H](O)CN3CCc4cnn(C)c4C3)ccn2)CC1 [Compound 3-37, (S)-2-((1-acetylpiperidin-4-yl)amino)-N-(2-hydroxy-3-(1-methyl-4,5-dihydro-1H-pyrazolo[3,4-c]pyridin-6(7H)-yl)propyl)isonicotinamide] |
| > 50 µM | Cn1ncc2c1CCN(C[C@@H](O)COc1cccc(-c3ccc4ncn(C)c4c3)c1)C2 [Compound 3-4] |
| < 0.1 µM | CC(=O)N1CCC(Nc2cc(C(=O)NC[C@H](O)CN3CCc4sc(C)c(C)c4C3)ncn2)CC1 [Compound 1-39] |
| > 50 µM | Cn1cnc2c1CN(C[C@@H](O)COc1cccc(CNC3CCCC3)c1)CC2 [Compound 3-15] |
| > 50 µM | OC(COc1cccc(CNC2CCCC2)c1)CN1CCc2cnccc2C1 (stereo not shown) [Compound 2-3] |
| 1 to 10 µM | CC(=O)N1CCC(Nc2cc(C(=O)NC[C@H](O)CN3CCc4[nH]ncc4C3)ncn2)CC1 [Compound 3-20] |
| < 0.1 µM | CC(=O)N1CCC(Nc2cc(C(=O)NC[C@H](O)CN3CCc4sc(C)c(C)c4C3)ccn2)CC1 [Compound 1-15, (S)-2-((1-acetylpiperidin-4-yl)amino)-N-(3-(2,3-dimethyl-6,7-dihydrothieno[3,2-c]pyridin-5(4H)-yl)-2-hydroxypropyl)isonicotinamide] |
| > 10 µM | O=C(NC[C@H](O)CN1CCc2scnc2C1)c1cc(NC2COC2)ncn1 [Compound 1-21] |
| > 10 µM | CC(=O)N1CCC(Nc2cc(C(=O)NC[C@H](O)CN3CCc4cn(C)nc4C3)ncn2)CC1 [Compound 3-59] |
| > 10 µM | CC(=O)N1CC(Nc2cc(C(=O)NC[C@H](O)CN3CCc4cn(C)nc4C3)ncn2)C1 [Compound 3-48] |
| > 50 µM | Cn1cc2c(n1)CCN(CC(O)COc1cccc(CNC3CCCC3)c1)C2 (stereo not shown) [Compound 3-2] |
| > 50 µM | Cn1cc2c(n1)CCN(C[C@@H](O)COc1cccc(-c3ccc4ncn(C)c4c3)c1)C2 [Compound 3-1] |
| 1 to 10 µM | Cn1ncc2c1CN(C[C@@H](O)CNC(=O)c1cc(NC3COC3)ncn1)CC2 [Compound 3-43] |
| > 50 µM | OC(COc1ccccc1)CN1CCc2[nH]nc(-c3ccccc3)c2C1 (stereo not shown) [Compound 3-32] |

The molecules below were run on Z-138 cell line (assay: Z-138 Proliferation Assay (Cell Titer Glo)). Conditions: Homo sapiens, 120 h; Z-138 cells, 5 days incubation, ATP (Cell Titer Glo).
Type: cell-based
From the text: Z-138 Proliferation Assay
Z-138 suspension cells were purchased from ATCC (American Type Culture Collection, Manassas, Va.). RPMI/Glutamax medium, penicillin-streptomycin, heat inactivated fetal bovine serum were purchased from Life Technologies, Grand Island, N.Y., USA. V-bottom polypropylene 384-well plates were purchased from Greiner Bio-One, Monroe, N.C., USA. Cell culture 384-well white opaque plates were purchased from Perkin Elmer, Waltham, Mass., USA. Cell-Titer Glo® was purchased from Promega Corporation, Madison, Wis., USA. SpectraMax M5 plate reader was purchased from Molecular Devices LLC, Sunnyvale, Calif., USA.
Z-138 suspension cells were maintained in growth medium (RPMI 1640 supplemented with 10% v/v heat inactivated fetal bovine serum and cultured at 37° C. under 5% CO2. Under assay conditions, cells were incubated in assay medium (RPMI 1640 supplemented with 10% v/v heat inactivated fetal bovine serum and 100 units/mL penicillin-streptomycin) at 37° C. under 5% CO2.
For the assessment of the effect of compounds on the proliferation of the Z-138 cell line, exponentially growing cells were plated in 384-well white opaque plates at a density of 10,000 cells/ml in a final volume of 50 μl of assay medium. A compound source plate was prepared by performing triplicate nine-point 3-fold serial dilutions in DMSO, beginning at 10 mM (final top concentration of compound in the assay was 20 μM and the DMSO was 0.2%). A 100 nL aliquot from the compound stock plate was added to its respective well in the cell plate. […] After addition of compounds, assay plates were incubated for 5 days at 37° C., 5% CO2, relative humidity >90%.
Cell viability was measured by quantitation of ATP present in the cell cultures, adding 35 μl of Cell Titer Glo® reagent to the cell plates. Luminescence was read in the SpectraMax M5 microplate reader. The concentration of compound inhibiting cell viability by 50% was determined using a 4-parametric fit of the normalized dose response curves.

| Structure (SMILES) | EC50 |
| --- | --- |
| OC(COc1cccc(CNC2CCCC2)c1)CN1CCc2ncccc2C1 (stereo not shown) [Compound 2-1, 1-(3-((cyclopentylamino)methyl)phenoxy)-3-(7,8-dihydro-1,6-naphthyridin-6(5H)-yl)propan-2-ol] | > 40 µM |
